Literature values, collected in US20130079416A1 (BOIRON, priority 2010, published 2013).
Read-outs that look alike come from different tables or passages of the source.

Assays:
[1] = human
[2] = rat, oral, multiple doses; methemoglobinemia-carboxyhaemoglobin, changes in blood cell and erythrocyte count
[3] = rats, long time and very high doses, alone or in combination with phenazone (Johansson, 1981)

CCOc1ccc(NC(C)=O)cc1 [phenacetin, N-(4-ethoxyphenyl)acetamide]
Lowest toxic dose (TDL0) ([1]; acute, route not indicated): 74 mg/kg
Lowest toxic dose (TDL0) ([1]; oral, multiple doses, tumorigenic-carcinogenic according to RTECS criteria, renal tumours): 80 mg/kg/63 mg/kg/63 years (intermittent)
Lowest toxic dose (TDL0) [2]: 10 mg/kg/ mg/kg/4 weeks (intermittent)
Incidence of renal tumours [3]: slightly increases the incidence of renal tumours
